Measured values as given in article PMC8227659, “The Metarhizium anisopliae Toxin, Destruxin A, Interacts with the SEC23A and TEME214 Proteins of Bombyx mori” (Journal of Fungi, 2021).
pKd: −log10 of the molar value. Where a SMILES comes first, the peptide text is derived from it. [ ]: non-standard residue; d: D form. dLac(3-vinyl) = C=CC[C@@H](O)C(=O)O; NMeV = CN[C@H](C(=O)O)C(C)C; NMeA = CN[C@@H](C)C(=O)O; βAla = NCCC(=O)O

Biological target: T1, BmTMEM214 (BmTEME214) (Bombyx mori, UniProt A0A8R1WLS5)
T1 construct: immobilised on biosensor
T1 sequence (A0A8R1WLS5 1-663): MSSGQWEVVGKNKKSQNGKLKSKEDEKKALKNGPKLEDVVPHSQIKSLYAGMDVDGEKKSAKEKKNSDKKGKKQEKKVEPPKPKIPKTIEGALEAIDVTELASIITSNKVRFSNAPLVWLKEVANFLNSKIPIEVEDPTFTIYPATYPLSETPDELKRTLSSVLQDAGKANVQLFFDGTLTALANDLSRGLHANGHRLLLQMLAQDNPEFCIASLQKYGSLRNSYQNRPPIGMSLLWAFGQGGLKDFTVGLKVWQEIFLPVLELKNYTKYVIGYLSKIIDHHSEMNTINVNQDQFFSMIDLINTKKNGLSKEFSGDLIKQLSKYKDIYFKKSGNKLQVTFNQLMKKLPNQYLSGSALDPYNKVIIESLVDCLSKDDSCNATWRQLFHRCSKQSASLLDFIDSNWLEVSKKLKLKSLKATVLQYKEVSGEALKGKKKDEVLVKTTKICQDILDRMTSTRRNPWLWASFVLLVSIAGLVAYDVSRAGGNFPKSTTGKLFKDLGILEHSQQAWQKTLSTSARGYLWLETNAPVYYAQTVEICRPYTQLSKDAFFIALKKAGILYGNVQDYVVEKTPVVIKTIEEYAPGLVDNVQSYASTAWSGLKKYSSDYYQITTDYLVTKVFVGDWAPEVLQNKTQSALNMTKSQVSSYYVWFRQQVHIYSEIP
Test: bio-layer interferometry, immobilised protein
Type: binding
Description: bio-layer interferometry, immobilised protein on BmTMEM214 (BmTEME214)

C=CC[C@H]1OC(=O)CCNC(=O)[C@H](C)N(C)C(=O)[C@H](C(C)C)N(C)C(=O)[C@H]([C@@H](C)CC)NC(=O)[C@@H]2CCCN2C1=O [DA, Destruxin A] (cyclo(I[NMeV][NMeA][βAla][dLac(3-vinyl)]P))
pKd: 6.54
